The numbers were not newly measured in patent US11252971B2, “Antimicrobial packaging films” (Cryovac, LLC, priority 2017, dated 2022), which cites them from elsewhere.

The structures appear in SMILES notation.

The conditions of this data set: GRAS by the U.S. Food and Drug Administration.

On to `CCCCCCCCCCCC(=O)N[C@@H](CCCNC(=N)N)C(=O)OCC.Cl` [LAE, ethyl-N^α-dodecanoyl-L-arginate.HCl], for which the Toxicity entry is listed as “nontoxic”.
